The values that follow come from PubChem BioAssay (NCI).

SMILES strings stand for the structures.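 Results reflect a 48-hour exposure of cells in 96-well plates to compound at five concentrations. GI50 marks 50% less growth. The concentration for full growth arrest is given as TGI.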 Some results are limits rather than exact numbers.

Some test systems named below: 786-0 renal; BT-549 breast; HS 578T breast; MOLT-4 leukemia; NCI-H23 lung; PC-3 prostate; SK-MEL-2 melanoma; TK-10 renal; UACC-62 melanoma; CCRF-CEM leukemia.
Holding throughout (assay): NCI tumour cell line growth inhibition, 48 h

On to `C/C(=N\NC(=S)N(C)C)c1cccnn1`, for which the TGI is above 100 µM in the test on 786-0 renal; above 100 µM in the test on BT-549 breast; above 100 µM in the test with HS 578T breast; 3.08 µM in the test on MOLT-4 leukemia; above 28.2 µM in the test with NCI-H23 lung; above 100 µM in the test with PC-3 prostate. The TGI was above 100 µM in the test on SK-MEL-2 melanoma, above 100 µM in the test on TK-10 renal and 4.89 µM in the test with UACC-62 melanoma.
Take `c1ccc(/C(=N/Nc2ccncn2)c2ccccn2)cc1`: the TGI was above 100 µM in the test with 786-0 renal; above 100 µM in the test with BT-549 breast; above 100 µM in the test with CCRF-CEM leukemia; 29.9 µM in the test with HS 578T breast; 49.2 µM with MOLT-4 leukemia; 46.5 µM in the test on NCI-H23 lung. Besides, the TGI in the test on PC-3 prostate, in the test on SK-MEL-2 melanoma and in the test on UACC-62 melanoma was above 100 µM throughout.
As for `CC(C)(C)CC(C)(C)c1cc(O)c(O)c(CN2CCCCC2)c1`, the TGI in the test with 786-0 renal turned out to be 26.7 µM; in the test on BT-549 breast, 28.4 µM; with HS 578T breast it was 41.3 µM; in the test with MOLT-4 leukemia it was 16.4 µM; in the test on NCI-H23 lung, 29.6 µM; with PC-3 prostate, 26.9 µM. In addition, the TGI worked out at 29.6 µM with TK-10 renal and 29.8 µM in the test on UACC-62 melanoma.
For the molecule `Cc1ccc(S(=O)CC(CF)OCn2cc(C)c(=O)[nH]c2=O)cc1` (configuration not stated), the TGI in the test with 786-0 renal, with BT-549 breast, with HS 578T breast, in the test on MOLT-4 leukemia, in the test with NCI-H23 lung and in the test with PC-3 prostate was above 100 µM each time. Also, the TGI with SK-MEL-2 melanoma, in the test with TK-10 renal and in the test on UACC-62 melanoma was above 100 µM throughout.
Turning to `CN(C)CCn1c(CO)nc2c1c(=O)n(C)c(=O)n2C`, the TGI in the test with 786-0 renal, in the test on BT-549 breast, with CCRF-CEM leukemia, with HS 578T breast, with NCI-H23 lung and in the test with PC-3 prostate was above 100 µM throughout. Also, the TGI in the test on SK-MEL-2 melanoma, in the test with TK-10 renal and in the test on UACC-62 melanoma was above 100 µM each time.
As to `Cc1cc2c([nH]c3ccccc32)c(O)c1-c1c(C)cc2c([nH]c3ccccc32)c1O`, the TGI in the test on 786-0 renal was found to be 26.6 µM; with BT-549 breast, 33.6 µM; in the test on HS 578T breast, 32.7 µM; in the test on MOLT-4 leukemia it was 16.3 µM; in the test with NCI-H23 lung, 26.8 µM; in the test on PC-3 prostate it was 25.9 µM. Further, the TGI amounted to 30.6 µM in the test with SK-MEL-2 melanoma and 31.2 µM in the test on TK-10 renal. Besides, the GI50 was 3.62 µM in the test on MOLT-4 leukemia and 12.4 µM with NCI-H23 lung.
Turning to `CCOC(=O)c1cc(C)nc2c1c(=O)n(-c1ccccc1)c(=O)n2CCCCN1CCN(c2ccccc2)CC1`, the TGI in the test on 786-0 renal, in the test with BT-549 breast, in the test with HS 578T breast, with MOLT-4 leukemia, with NCI-H23 lung and in the test on PC-3 prostate was above 100 µM in each case. In addition, the TGI in the test with SK-MEL-2 melanoma, in the test on TK-10 renal and in the test with UACC-62 melanoma was above 100 µM each time.
For the molecule `CCN=C1C=CC(=C(c2ccc(N(CC)CC)cc2)c2ccc(N(CC)CC)cc2)c2ccccc21`, the GI50 in the test with BT-549 breast was 0.107 µM; in the test with CCRF-CEM leukemia, 0.0471 µM; in the test on HS 578T breast, 0.0408 µM; in the test on SK-MEL-2 melanoma, 0.0768 µM; in the test on TK-10 renal it was 0.0422 µM; with UACC-62 melanoma, 0.0983 µM. Further, the TGI with BT-549 breast amounted to 0.602 µM; with CCRF-CEM leukemia, 1.52 µM; in the test with HS 578T breast it was 0.533 µM; in the test with SK-MEL-2 melanoma, 0.383 µM; in the test with TK-10 renal, 1.13 µM; in the test on UACC-62 melanoma it was 1.11 µM.
On to `COC[C@@H](N=Cc1ccc([N+](=O)[O-])cc1)C(C)C`, for which the TGI in the test on 786-0 renal, in the test with CCRF-CEM leukemia, in the test with HS 578T breast, in the test on MOLT-4 leukemia, in the test on NCI-H23 lung and in the test on PC-3 prostate was above 100 µM each time. The TGI with SK-MEL-2 melanoma, in the test on TK-10 renal and in the test on UACC-62 melanoma was above 100 µM throughout.
With `Cc1nnc2n1N=C(c1ccc(Cl)cc1Cl)/C(=C/c1ccc(-c3ccc([N+](=O)[O-])cc3Cl)o1)S2`, the GI50 in the test on BT-549 breast is 22.1 µM; with HS 578T breast, 20.2 µM; in the test on MOLT-4 leukemia it was 13.1 µM; with NCI-H23 lung it was 12.5 µM; with PC-3 prostate it was 31.3 µM; with SK-MEL-2 melanoma, 32.8 µM. Besides, the GI50 with TK-10 renal and with UACC-62 melanoma was 18.4 µM in each case. Moreover, the TGI in the test with BT-549 breast is 43.3 µM; in the test on HS 578T breast, 50.7 µM; with MOLT-4 leukemia it was 33.6 µM; in the test with NCI-H23 lung, 28.1 µM; in the test on PC-3 prostate it was above 100 µM; in the test with SK-MEL-2 melanoma, above 100 µM. Moreover, the TGI in the test on TK-10 renal was 34.8 µM; in the test on UACC-62 melanoma, 39.9 µM.
As for `CCOC(=O)Nn1c(CC#N)nnc1Cc1ccccc1`, the TGI in the test with 786-0 renal, in the test on BT-549 breast, with HS 578T breast, in the test with MOLT-4 leukemia, in the test on NCI-H23 lung and in the test with PC-3 prostate was above 100 µM each time. Also, the TGI in the test on SK-MEL-2 melanoma, with TK-10 renal and in the test with UACC-62 melanoma was above 100 µM each time.
Turning to `NCC(O)CSCc1ccc(Cl)cc1` (configuration not stated), the TGI in the test on 786-0 renal, in the test on BT-549 breast, in the test on CCRF-CEM leukemia, with HS 578T breast, with MOLT-4 leukemia and in the test with NCI-H23 lung was above 100 µM in each case. Further, the TGI in the test with PC-3 prostate, in the test on TK-10 renal and with UACC-62 melanoma was above 100 µM each time.
As for `CCCSc1ccc2[nH]c(N3C(=O)/C(=C/c4ccccc4)N=C3c3ccccc3)cc2c1`, the TGI with 786-0 renal, in the test with BT-549 breast, in the test on CCRF-CEM leukemia, in the test on HS 578T breast, in the test on MOLT-4 leukemia and in the test on NCI-H23 lung was above 50 µM each time. Further, the results for the TGI in the test with PC-3 prostate, with SK-MEL-2 melanoma and in the test with UACC-62 melanoma were above 50 µM, 18 µM and above 50 µM, respectively.
